Experimental data published in US8415469B2, “Compounds and methods for kinase modulation, and indications therefor” (Plexxikon Inc., priority 2005, dated 2013).

What was measured:
Assay type in all cases: biochemical
Jnk1 = molecular target: T1, Jnk1 (Homo sapiens, UniProt P45983); assay: AlphaScreen kinase assay, Jnk1; details: read-out: IC50, activity toward kinase Jnk1
T1 construct: purchased Upstate Biotechnology

Flt1 = molecular target: T2, Flt1 (Homo sapiens, UniProt P17948); assay: AlphaScreen kinase assay, Flt1; details: read-out: IC50, activity toward kinase Flt1
T2 construct: P1826.pETN6 BI-PTP FLT1 M799-D1165-X WT; His6 (N); made in house; host or cells: E. coli (PTP1B co-expressed)
T2 sequence (P17948 with tags, fused parts or gaps): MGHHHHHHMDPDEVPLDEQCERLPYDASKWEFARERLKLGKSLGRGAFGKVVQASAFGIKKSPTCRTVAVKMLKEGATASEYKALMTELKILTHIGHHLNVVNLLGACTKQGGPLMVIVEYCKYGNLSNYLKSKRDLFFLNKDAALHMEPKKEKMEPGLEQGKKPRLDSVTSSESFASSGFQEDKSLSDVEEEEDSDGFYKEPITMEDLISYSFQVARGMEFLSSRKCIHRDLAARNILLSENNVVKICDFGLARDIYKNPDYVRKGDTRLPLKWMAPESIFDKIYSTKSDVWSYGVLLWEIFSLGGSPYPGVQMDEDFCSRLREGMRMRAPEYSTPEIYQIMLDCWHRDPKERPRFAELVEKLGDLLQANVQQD

B-Raf = molecular target: T3, B-Raf (Homo sapiens, UniProt P15056); assay: AlphaScreen kinase assay, B-Raf; details: read-out: IC50, activity toward kinase B-Raf
T3 construct: purchased Upstate Biotechnology
T3 sequence (P15056 whole entry): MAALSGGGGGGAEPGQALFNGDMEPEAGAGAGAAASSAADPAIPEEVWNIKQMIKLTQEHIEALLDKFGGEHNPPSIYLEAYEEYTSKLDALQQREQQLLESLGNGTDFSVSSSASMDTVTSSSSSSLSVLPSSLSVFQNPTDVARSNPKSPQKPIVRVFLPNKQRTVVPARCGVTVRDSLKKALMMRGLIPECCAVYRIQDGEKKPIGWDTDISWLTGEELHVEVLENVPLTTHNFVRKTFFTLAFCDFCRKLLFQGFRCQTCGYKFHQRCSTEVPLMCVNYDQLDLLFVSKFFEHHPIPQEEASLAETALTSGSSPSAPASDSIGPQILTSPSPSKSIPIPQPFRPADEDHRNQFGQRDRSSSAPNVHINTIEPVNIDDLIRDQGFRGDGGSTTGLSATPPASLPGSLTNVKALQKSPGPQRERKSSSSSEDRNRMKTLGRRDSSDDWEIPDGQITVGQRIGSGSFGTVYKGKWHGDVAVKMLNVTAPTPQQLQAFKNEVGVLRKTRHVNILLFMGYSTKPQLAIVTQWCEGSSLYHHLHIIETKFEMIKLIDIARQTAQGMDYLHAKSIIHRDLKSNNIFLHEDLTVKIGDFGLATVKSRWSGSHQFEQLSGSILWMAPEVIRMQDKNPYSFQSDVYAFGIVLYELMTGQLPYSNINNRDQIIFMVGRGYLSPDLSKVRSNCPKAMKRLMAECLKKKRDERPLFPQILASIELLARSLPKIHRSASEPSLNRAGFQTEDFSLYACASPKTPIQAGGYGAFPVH

B-Raf V600E = molecular target: T4, B-Raf V600E (Homo sapiens, UniProt P15056, V600E); assay: AlphaScreen kinase assay, B-Raf V600E; details: read-out: IC50, activity toward kinase B-Raf V600E
T4 construct: P4254. pFastBacBD-CDC37 BRAF D437-K722-X, V600E; His6 with pFastBac HT leader (TEV site) (N); made in house; host or cells: Sf9 (baculovirus; chaperone CDC37 co-expressed)
T4 sequence (P15056 with tags, fused parts or gaps V600E): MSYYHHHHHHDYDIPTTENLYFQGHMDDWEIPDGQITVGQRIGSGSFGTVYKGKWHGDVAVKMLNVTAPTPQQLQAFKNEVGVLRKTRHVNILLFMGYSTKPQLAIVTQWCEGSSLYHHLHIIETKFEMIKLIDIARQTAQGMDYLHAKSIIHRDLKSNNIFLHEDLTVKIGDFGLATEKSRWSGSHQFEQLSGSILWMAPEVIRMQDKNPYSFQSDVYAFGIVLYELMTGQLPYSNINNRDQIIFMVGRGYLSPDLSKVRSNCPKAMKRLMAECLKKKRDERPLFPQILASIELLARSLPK

Jnk2 = molecular target: T5, Jnk2 (Homo sapiens, UniProt P45984); assay: AlphaScreen kinase assay, Jnk2; details: read-out: IC50, activity toward kinase Jnk2
T5 construct: purchased Roche Protein Expression Group (Indianapolis, IN)
T5 sequence (P45984 whole entry): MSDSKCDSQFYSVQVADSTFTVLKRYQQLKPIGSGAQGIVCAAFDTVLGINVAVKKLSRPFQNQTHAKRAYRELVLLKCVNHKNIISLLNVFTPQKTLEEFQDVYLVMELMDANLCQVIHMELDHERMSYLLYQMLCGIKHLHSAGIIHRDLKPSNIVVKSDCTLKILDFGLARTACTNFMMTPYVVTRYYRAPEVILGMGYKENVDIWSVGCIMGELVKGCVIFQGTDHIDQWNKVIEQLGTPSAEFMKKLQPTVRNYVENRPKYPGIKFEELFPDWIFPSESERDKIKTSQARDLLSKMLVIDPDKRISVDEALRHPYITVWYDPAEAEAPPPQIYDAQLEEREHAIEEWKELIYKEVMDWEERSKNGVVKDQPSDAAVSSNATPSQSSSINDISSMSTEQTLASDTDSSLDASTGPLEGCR
Text: AlphaScreen assay was used to screen additional kinases. The assay is similarly dependent on the phosphorylation of a peptide substrate. In this assay, an antibody that recognizes phosphorylated substrate is bound to an acceptor bead. The peptide substrate is attached to biotin, which binds to a donor head that contains streptavidin. Thus phosphorylated substrate is bound by antibody and streptavidin, bringing the donor and acceptor heads into close proximity when kinase is not inhibited. The donor produces singlet oxygen which results in emission from the acceptor when they are in close proximity. Conversely, when kinase is inhibited, the donor and acceptor beads are not associated and the emission from the acceptor is reduced.
AlphaScreen assays were done using compounds dissolved in DMSO to a concentration of 20 mM. The compounds were diluted accordingly to the desired final concentrations in each sample well, using 1:3 serial dilution for a total of 8 concentration points.

Fms = molecular target: T6, Fms (Homo sapiens, UniProt P07333); assay: AlphaScreen kinase assay, Fms; details: read-out: IC50, activity toward kinase Fms
T6 construct: purchased Upstate Biotechnology
T6 sequence (P07333 20-972): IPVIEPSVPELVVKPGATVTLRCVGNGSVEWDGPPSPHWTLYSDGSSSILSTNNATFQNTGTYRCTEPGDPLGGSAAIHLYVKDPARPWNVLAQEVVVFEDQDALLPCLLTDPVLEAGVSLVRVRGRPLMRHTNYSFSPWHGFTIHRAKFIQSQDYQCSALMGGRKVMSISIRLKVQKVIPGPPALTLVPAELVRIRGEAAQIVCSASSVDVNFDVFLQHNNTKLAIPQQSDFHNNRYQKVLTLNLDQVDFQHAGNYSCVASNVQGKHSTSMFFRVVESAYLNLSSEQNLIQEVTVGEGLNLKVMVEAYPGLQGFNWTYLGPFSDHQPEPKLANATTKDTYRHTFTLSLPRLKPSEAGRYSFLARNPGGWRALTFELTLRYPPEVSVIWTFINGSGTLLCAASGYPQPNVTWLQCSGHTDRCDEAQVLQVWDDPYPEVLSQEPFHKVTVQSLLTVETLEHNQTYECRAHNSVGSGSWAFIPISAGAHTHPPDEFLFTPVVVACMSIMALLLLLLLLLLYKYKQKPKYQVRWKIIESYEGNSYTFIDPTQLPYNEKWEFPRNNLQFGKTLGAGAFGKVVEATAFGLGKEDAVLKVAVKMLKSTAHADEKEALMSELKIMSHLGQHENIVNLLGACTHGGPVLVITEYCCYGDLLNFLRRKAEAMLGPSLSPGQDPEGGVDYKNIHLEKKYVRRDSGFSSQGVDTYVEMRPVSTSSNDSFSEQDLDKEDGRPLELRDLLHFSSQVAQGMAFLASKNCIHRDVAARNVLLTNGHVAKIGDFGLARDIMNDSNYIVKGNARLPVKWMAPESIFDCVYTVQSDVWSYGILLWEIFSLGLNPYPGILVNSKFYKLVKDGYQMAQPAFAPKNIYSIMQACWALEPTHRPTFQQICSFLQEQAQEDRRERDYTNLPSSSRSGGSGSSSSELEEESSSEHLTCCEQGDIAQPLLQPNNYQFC

Measured: IC50

T1 sequence (P45983 whole entry): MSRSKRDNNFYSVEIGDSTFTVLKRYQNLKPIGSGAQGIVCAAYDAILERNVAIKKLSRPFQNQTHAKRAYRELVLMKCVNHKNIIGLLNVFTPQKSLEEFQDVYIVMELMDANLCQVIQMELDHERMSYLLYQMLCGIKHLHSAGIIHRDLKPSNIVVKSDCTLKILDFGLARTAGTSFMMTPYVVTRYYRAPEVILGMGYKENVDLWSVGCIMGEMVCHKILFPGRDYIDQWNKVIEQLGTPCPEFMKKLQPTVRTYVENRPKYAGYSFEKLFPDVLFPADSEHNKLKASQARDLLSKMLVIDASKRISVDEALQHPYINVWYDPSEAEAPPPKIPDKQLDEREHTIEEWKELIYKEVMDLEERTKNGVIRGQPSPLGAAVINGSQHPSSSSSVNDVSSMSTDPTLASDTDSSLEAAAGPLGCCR

CCCCNC(=O)n1ccc2c(C(=O)c3c[nH]c4ncc(-c5ccc(Cl)cc5)cc34)cccc21 [Compound P-1602, 4-[5-(4-Chloro-phenyl)-1H-pyrrolo[2,3-b]pyridine-3-carbonyl]-indole-1-carboxylic acid butylamide]
≤ 10 µM: all assays above

O=C(Nc1cccc(C(=O)c2c[nH]c3ncc(-c4cccnc4)cc23)c1)Nc1ccc(Cl)c(C(F)(F)F)c1 [Compound P-1751, 1-(4-Chloro-3-trifluoromethyl-phenyl)-3-[3-(5-pyridin-3-yl-1H-pyrrolo[2,3-b]pyridine-3-carbonyl)-phenyl]-urea]
not listed: Flt1
≤ 10 µM: all other assays above

O=C(Nc1cccc(C(=O)c2c[nH]c3ncc(-c4cccnc4)cc23)c1)Nc1cccc(C(F)(F)F)c1 [Compound P-1755, 1-[3-(5-Pyridin-3-yl-1H-pyrrolo[2,3-b]pyridine-3-carbonyl)-phenyl]-3-(3-trifluoromethyl-phenyl)-urea]
not listed: Flt1
≤ 10 µM: all other assays above

O=C(Nc1ccncc1)Nc1cccc(C(=O)c2c[nH]c3ncccc23)c1 [Compound P-1760, 1-Pyridin-4-yl-3-[3-(1H-pyrrolo[2,3-b]pyridine-3-carbonyl)-phenyl]-urea]
not listed: Flt1
≤ 10 µM: all other assays above

COc1cc(NC(=O)Nc2cccc(C(=O)c3c[nH]c4ncc(-c5cccnc5)cc34)c2)cc(C(F)(F)F)c1 [Compound P-1778, 1-(3-Methoxy-5-trifluoromethyl-phenyl)-3-[3-(5-pyridin-3-yl-1H-pyrrolo[2,3-b]pyridine-3-carbonyl)-phenyl]-urea]
not listed: Flt1
≤ 10 µM: all other assays above

COc1ccc(NC(=O)Nc2cccc(C(=O)c3c[nH]c4ncc(-c5cccnc5)cc34)c2)cn1 [Compound P-1779, 1-(6-Methoxy-pyridin-3-yl)-3-[3-(5-pyridin-3-yl-1H-pyrrolo[2,3-b]pyridine-3-carbonyl)-phenyl]-urea]
not listed: Flt1
≤ 10 µM: all other assays above
